The test system of experiment [1] is A. fumigatus. Put plainly: Microbroth dilution assay. The format is cell-based. Also on record: key: +ve if medium appeared clear with out any growth of fungi; -ve if growth was there. On the procedure: (§1) Pathogenic strains of fungi were obtained from the Mycology Department of Vallabhbhai Patel Chest Institute, Delhi. All the strains were grown on Sabouraud dextrose agar at 37°C. The conidia form these cultures were harvested and suspended in Sabouraud maltose broth. The number of conidia was counted using haemocytometer and their number in the suspension was adjusted to as per need of the experiment.
(§2) The antifungal susceptibility of the fungi to various fractions or the purified component was assayed by the microbroth, dilution method (Forthergill A.W. and McGough A.W., 1995, Clin. Microbiol. Procedure Handbook. In Vitro susceptibility Testing of Yeast, 5.15.1-5.15.15). The fungal spores were harvested from 96-h cultures and their number adjusted to 1x10^6 per ml. The Sabouraud Dextrose medium was dissolved in glass double distilled water and autoclaved at 10 psi for 15 min. 90-µl medium was added into the wells of cell culture plates. The different concentrations of the extract, fractions or the purified compound were prepared in duplicate wells and then the wells were inoculated with 10 µl of spore suspension. The plates were incubated at 37°C and examined macroscopically after 48 h for the growth of fungal mycelia. The activity was represented as -ve if growth was there and +ve if medium appeared clear with out any growth of fungi.
(§3) The antifungal susceptibility of the fungi to the purified compound was assayed by the microbroth dilution method. The different concentrations of the purified compound ranging from 21.87 to 350 µg/ml were prepared in duplicate wells by twofold dilution method. The test was done as described above. […] Table 1: Activity of the compound against Aspergillus sp. after 48 hrs.
(In general: Dilution methods test growth across graded concentrations, often in twofold steps.)

Experiment [2] deals with A. niger. Put plainly: Microbroth dilution assay. The format is cell-based. Also noted: key: +ve if medium appeared clear with out any growth of fungi; -ve if growth was there. As to the method: as §1, §2, §3
In experiment [3] the test system is A.flavus. Nature of the experiment: Microbroth dilution assay. It is filed as cell-based. Also noted: key: +ve if medium appeared clear with out any growth of fungi; -ve if growth was there. As to the method: as §1, §2, §3
Experiment [4] relates to A. fumigatus. Put plainly: In vivo efficacy, survival in mice model of aspergillosis. Also noted: species or system Balb/C mice. Particulars: oral; probit of percent survival against log dose. The text has this: In vivo efficacy of the compound against A. fumigatus infection was studied in the Balb/C mice of 6-8 weak of age of either sex, weighing 15-20 g each. The mice model of aspergillosis described by Dixon et al (1989), was used to study the effects of compound on in vivo infection of A. fumigatus.
The animals were housed in the micro-barrier cages on sterile bedding and fed ad libitum water and food. The mice were divided into 6 groups and each group contained 8-10 animals. The mice were infected experimentally with A. fumigatus. Three days prior to infection with conidia, mice were injected subcutaneously with 3 doses (250.0 mg/kg/day) of cortisone acetate in 400.0 µl of PBS. On the infection day, each mouse received 2x10^7 conidia by nasal instillation of a single droplet of conidial suspension. […]
A. fumigatus (190/96) isolate was grown on Sabouraud dextrose agar plates at 37 °C for 4 days. […] The number of conidia, was counted and adjusted to 1x10^8 conidia/ml. The viability of the conidia was determined by plating the dilutions of suspensions on Sabouraud dextrose agar. […]
The animals were housed in properly labeled cages and kept under close watch for weight loss and the mortality. The survival rate over a period of 10 days was calculated and the fungal burden in survivors determined (Clemons and Stevens, 1994). […]

Turning to `CCCCC(=O)OC(C)CC1NCC(C)=C1C` (stereo not shown) [PC-1, 2-(3,4-dimethyl-2,5-dihydro-1H-pyrrol-2-yl)-1-methylethyl pentanoate], the “Activity against Aspergillus sp. after 48 hrs” value (shortened to “Activity”) in experiment [1] (21.87 µg/ml) is “-”; in experiment [1] (43.75 µg/ml), “-”; in experiment [1] (87.50 µg/ml), “+”; in experiment [1] (175.00 µg/ml), “+”; in experiment [1] (350.00 µg/ml) it was “+”; in experiment [2] (21.87 µg/ml), “-”. Moreover, the “Activity” value in experiment [2] (43.75 µg/ml) is reported as “-”; in experiment [2] (87.50 µg/ml) it was “+”; in experiment [2] (175.00 µg/ml), “+”; in experiment [2] (350.00 µg/ml) it was “+”; in experiment [3] (21.87 µg/ml), “-”; in experiment [3] (43.75 µg/ml), “-”. Moreover, the “Activity” value in experiment [3] (87.50 µg/ml), in experiment [3] (175.00 µg/ml) and in experiment [3] (350.00 µg/ml) was “+” throughout. Moreover, in experiment [4], the “ED50 (effective dose required to confer protection in 50% of the animals)” value came to 167.0 mg/kg body weight.

The values are drawn from patent EP1487791B1, “A NOVEL ANTIFUNGAL MOLECULE 2-(3,4-DIMETHYL-2,5-DIHYDRO-1H-PYRROL-2-YL)- METHYLETHYL PENTANOATE” (priority 2002, dated 2003).
